Test results published in ChEMBL document CHEMBL1201862, “PubChem BioAssay data set” (2004).
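Interpolation was linear, between the two tested concentrations surrounding the appropriate level; five concentrations were tested over 48 hours in 96-well plates. GI50: concentration for 50% inhibition of growth.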 Calls of active or inactive are those of the source. Cut-off read from the data, not from the text of the source: active = GI50 up to about 1.1 µM and inactive = higher.

Legend:
Assay in all cases: NCI anticancer screen, dose series, 48 h
Malme-3M = system: Malme-3M
SN12C = system: SN12C
M14 = system: M14
BT-549 = system: BT-549
HT-29 = system: HT-29
EKVX = system: EKVX
SNB-19 = system: SNB-19
DU-145 = system: DU-145
Hs-578T = system: Hs-578T
HOP-92 = system: HOP-92
SK-MEL-28 = system: SK-MEL-28
COLO 205 = system: COLO 205
OVCAR-5 = system: OVCAR-5
SF-539 = system: SF-539
NCI-H522 = system: NCI-H522
K562 = system: K562
TK-10 = system: TK-10
IGROV-1 = system: IGROV-1
HOP-62 = system: HOP-62
A498 = system: A498

Measured: GI50

OCC(O)C(O)C(O)C1SC(c2ccccc2)=NN1c1ccccc1 (stereo not given)
inactive: Malme-3M > 82 µM | SN12C > 91.8 µM | M14 83 µM | BT-549 > 100 µM | HT-29 > 92 µM | EKVX > 95.7 µM | SNB-19 49.8 µM | DU-145 > 61 µM | Hs-578T 35.1 µM | HOP-92 27 µM | SK-MEL-28 > 81.5 µM | COLO 205 > 100 µM | OVCAR-5 > 84.9 µM | SF-539 41.2 µM | NCI-H522 33 µM | K562 > 70.1 µM | TK-10 61.9 µM | IGROV-1 > 96.2 µM | HOP-62 38.9 µM | A498 > 88.5 µM

Cc1cccc2c1C(=O)/C(=C/c1ccccc1C(=O)O)C2
inactive: Malme-3M > 100 µM | SN12C > 100 µM | M14 > 100 µM | BT-549 > 100 µM | HT-29 > 100 µM | EKVX 66.8 µM | SNB-19 > 100 µM | DU-145 > 100 µM | Hs-578T > 100 µM | HOP-92 > 100 µM | SK-MEL-28 > 100 µM | COLO 205 > 100 µM | OVCAR-5 > 100 µM | SF-539 > 100 µM | NCI-H522 > 100 µM | K562 > 100 µM | TK-10 > 100 µM | IGROV-1 > 100 µM | HOP-62 > 100 µM | A498 > 100 µM

Clc1nc2c(-c3cccs3)ncnc2n1Cc1ccccc1
inactive: Malme-3M 36.5 µM | SN12C 35.8 µM | M14 66.8 µM | BT-549 25.8 µM | HT-29 39.8 µM | EKVX 21.4 µM | SNB-19 27.4 µM | DU-145 2.49 µM | Hs-578T 22.8 µM | HOP-92 9.44 µM | SK-MEL-28 61.5 µM | COLO 205 34.7 µM | OVCAR-5 > 94.2 µM | SF-539 40 µM | NCI-H522 19.4 µM | K562 57.3 µM | TK-10 23 µM | IGROV-1 29.6 µM | HOP-62 47.6 µM | A498 19.4 µM

CC(O)CN1c2ccccc2Sc2ccccc21 (stereo not given)
inactive: Malme-3M > 100 µM | SN12C > 100 µM | M14 > 100 µM | BT-549 > 100 µM | HT-29 > 100 µM | EKVX > 100 µM | SNB-19 > 100 µM | DU-145 > 100 µM | Hs-578T > 100 µM | HOP-92 > 100 µM | SK-MEL-28 > 100 µM | COLO 205 > 100 µM | OVCAR-5 > 100 µM | SF-539 > 100 µM | NCI-H522 > 100 µM | K562 > 100 µM | TK-10 > 100 µM | IGROV-1 > 100 µM | HOP-62 > 100 µM | A498 > 100 µM
